Consider three molecules from ChEMBL document CHEMBL1128163, “Synthesis and biological evaluation of 4-heterotribactams” (Bioorg Med Chem Lett, 1995).

Active and inactive are the calls of the source. The rule behind the calls is not given here.

What all share (assay type): functional, organism-based
In assay [1] the test system is Pseudomonas aeruginosa. The assay is described as follows: Tested for broad spectrum antibacterial activity against Pseudomonas aeruginosa; A - active compound.
For assay [2], the system named is Escherichia coli. The assay is described as follows: Antibacterial activity against Escherichia coli 1919-PM/TEM-1 strains at a concentration of at 16 ug/mL concentration; A - low activity was observed.
Assay [3] relates to Staphylococcus epidermidis. Description: Antibacterial activity against Staphylococcus epidermidis at 2 ug/mL concentration; A - weak activity was observed.
For assay [4], the system named is Escherichia coli. The assay is described as follows: Antibacterial activity against Escherichia coli 1852-PM strain at 16 ug/mL concentration; A - low activity was observed.
Assay [5] has as its system Escherichia coli. Description: Antibacterial activity against Escherichia coli 1850-WT strain at 16 ug/mL concentration; A - low activity was observed.
A further assay concerns Streptococcus pneumoniae. The assay is described as follows: Antibacterial activity against Streptococcus pneumoniae at a concentration of 2 ug/mL; A - weak activity was observed.
Assay [6] relates to Escherichia coli. Description: Antibacterial activity against Escherichia coli 851 at 16 ug/mL concentration; A - low activity was observed.
For assay [7], the system named is Staphylococcus aureus. Description: Antibacterial activity against resistant strains of Staphylococcus aureus at 2-32 ug/mL concentration; A - weak activity was observed.
For assay [8], the system named is Pseudomonas aeruginosa. Description: Antibacterial activity against Pseudomonas aeruginosa at concentrations >32 ug/mL; inactive.
For assay [9], the system named is Staphylococcus aureus. The assay is described as follows: Antibacterial activity against sensitive strains of Staphylococcus aureus at 2-32 ug/mL concentration; A - weak activity was observed.

Take `C[C@@H](O)[C@H]1C(=O)N2C(C(=O)O)=C(S[C@@H]3CN[C@H](C(=O)N(C)C)C3)[C@H](C)[C@H]12`: the Activity entry in the assay with Pseudomonas aeruginosa [1] is reported as “Low activity”.
In the case of `C[C@@H](O)[C@H]1C(=O)N2C(C(=O)O)=C(SCCN)C[C@H]12`, in the assay with Pseudomonas aeruginosa [1], the Activity result is listed as “Low activity”.
For the molecule `C[C@@H](O)[C@H]1C(=O)N2C(C(=O)O)=C3SCC[C@H]3[C@H]12`, the Activity result (with Escherichia coli [2]; in assay [3]; in the assay with Escherichia coli [4]; in the assay with Escherichia coli [5]; with Streptococcus pneumoniae; in the assay on Escherichia coli [6]) was “Low activity” throughout. For the same molecule, the Activity result in the assay on Staphylococcus aureus [7] and with Staphylococcus aureus [9] was “Low activity” throughout. Besides, the result with Pseudomonas aeruginosa [8] was inactive.
